The values below come from patent US5057493A, “Novel antibiotics R106” (priority 1988, dated 1991).

Molecules are shown by their SMILES. Starred links: 1 amine or outer side, 2 acyl side, 3 side chain; linkers in the order of their positions; H or OH if unused. Non-standard residues stand in square brackets, D forms with d. Residues, ends and D or L forms follow the SMILES beside them. ξ: configuration not given here. X2 = CN(C(C(=O)[*:2])C(O)c1ccccc1)[*:1]; ξNMeVal(3-OH) = CNC(C(=O)O)C(C)(C)O; X6 = CC(C)=C(C(=O)[*:2])N(C)[*:1]; NMeF = CN[CH](Cc1ccccc1)C(=O)O; X1 = CCC(C)C(O[*:1])C(=O)[*:2]; NMeV = CN[CH](C(=O)O)C(C)C; Hiv = CC(C)[CH](O)C(=O)O

Test in all cases: MIC by agar dilution method, casitone agar
Format in all cases: cell-based
What all share (conditions): Table 5
For orientation: In agar dilution, organisms are placed on agar that contains the substance at set levels.

Assay [1] deals with Candida glabrata TIMM 1062. The protocol:
(§1) The minimum inhibitory concentration (MIC) of each antibiotic against various fungi was determined by the agar dilution method using casitone agar medium (2.0% glucose, 0.9% bacto-casitone, 1.0% yeast extract, 0.1% KH2 PO4, 0.1% Na2 HPO4, 1.0% sodium citrate, 2.0% agar: concentrations are all by w/v).
(§2) Each minimum growth inhibitory concentration was determined after culturing at 27° C. for 4 days.

Assay [2] concerns Cryptococcus neoformans TIMM 0354. The protocol:
as §1, §2

Assay [3] concerns Candida albicans TIMM 0136. The protocol:
(§3) The antibiotics R106 of the present invention are active against various fungi including pathogenic fungi. The minimum inhibitory concentration (MIC) of each antibiotic against various fungi was determined by the agar dilution method using casitone agar medium (2.0% glucose, 0.9% bacto-casitone, 1.0% yeast extract, 0.1% KH2 PO4, 0.1% Na2 HPO4, 1.0% sodium citrate, 2.0% agar: concentrations are all by w/v).

The test system of assay [4] is Candida albicans TIMM 0171. The protocol:
as §3

The test system of assay [5] is Candida albicans TIMM 1768. The protocol:
as §3

The test system of assay [6] is Candida kefyr TIMM 0301. The protocol: as §3

As for `CCC(C)C1NC(=O)C2CCCN2C(=O)C(Cc2ccccc2)N(C)C(=O)C(Cc2ccccc2)NC(=O)C(C(C)C)N(C)C(=O)C(C(C)CC)OC(=O)C(C(O)c2ccccc2)N(C)C(=O)C(CC(C)C)NC(=O)C(C(C)C)N(C)C1=O` (stereo not drawn) [Compound 15] (cyclo([X2][X1][NMeV]F[NMeF]PI[NMeV]L); configuration not given here), the “minimum inhibitory concentration (MIC)” value was over 25 in assay [1]; 25 in assay [2]; 12.5 in assay [3]; 25 in assay [4]; 25 in assay [5]; over 25 in assay [6].
Take `CCC(C)C1NC(=O)C2CCCN2C(=O)C(Cc2ccccc2)N(C)C(=O)C(Cc2ccccc2)NC(=O)C(C(C)C)N(C)C(=O)C(C(C)CC)OC(=O)C(C(C)C)NC(=O)C(CC(C)C)NC(=O)C(C(C)C)N(C)C1=O` (stereo not drawn) [Compound 8] (cyclo([X1][NMeV]F[NMeF]PI[NMeV]LV); configuration not given here): the “minimum inhibitory concentration (MIC)” value in assay [1] is over 25; in assay [2], over 25; in assay [3] it was 1.56; in assay [4], 1.56; in assay [5], 12.5; in assay [6], over 25.
For the compound `CCC(C)C1OC(=O)C(C(C)(C)O)N(C)C(=O)C(CC(C)C)NC(=O)C(C(C)C)N(C)C(=O)C(C(C)C)NC(=O)C2CCCN2C(=O)C(Cc2ccccc2)N(C)C(=O)C(Cc2ccccc2)NC(=O)C(C(C)C)N(C)C1=O` (stereo not drawn) [Compound 3] (cyclo([ξNMeVal(3-OH)][X1][NMeV]F[NMeF]PV[NMeV]L); configuration not given here), the “minimum inhibitory concentration (MIC)” value is 0.20 in assay [1]; 1.56 in assay [2]; 0.10 in assay [3]; 0.10 in assay [4]; 1.56 in assay [5]; 0.20 in assay [6].
Turning to `CCC(C)C1OC(=O)C(C(C)C)N(C)C(=O)C(CC(C)C)NC(=O)C(C(C)C)N(C)C(=O)C(C(C)C)NC(=O)C2CCCN2C(=O)C(Cc2ccccc2)N(C)C(=O)C(Cc2ccccc2)NC(=O)C(C(C)C)N(C)C1=O` (stereo not drawn) [Compound 12] (cyclo([X1][NMeV]F[NMeF]PV[NMeV]L[NMeV]); configuration not given here), the “minimum inhibitory concentration (MIC)” value in assay [1] is over 25; in assay [2] it was over 25; in assay [3], 6.25; in assay [4], 6.25; in assay [5], 25; in assay [6], 12.5.
For `CCC(C)C1NC(=O)C2CCCN2C(=O)C(Cc2ccccc2)N(C)C(=O)C(Cc2ccccc2)NC(=O)C(C(C)C)N(C)C(=O)C(C(C)CC)OC(=O)C(=C(C)C)N(C)C(=O)C(CC(C)C)NC(=O)C(C(C)C)N(C)C1=O` (stereo not drawn) [Compound 18] (cyclo([X6][X1][NMeV]F[NMeF]PI[NMeV]L); configuration not given here), the “minimum inhibitory concentration (MIC)” value in assay [1] is given as over 25; in assay [2], over 25; in assay [3] it was 6.25; in assay [4], 3.12; in assay [5], 25; in assay [6], 25.
On to `CCC(C)C1NC(=O)C2CCCN2C(=O)C(Cc2ccccc2)N(C)C(=O)C(Cc2ccccc2)NC(=O)C(C(C)C)N(C)C(=O)C(C(C)C)OC(=O)C(C(C)C)N(C)C(=O)C(CC(C)C)NC(=O)C(C(C)C)N(C)C1=O` (stereo not drawn) [Compound 11] (cyclo(F[NMeF]PI[NMeV]L[NMeV][Hiv][NMeV]); configuration not given here), for which the “minimum inhibitory concentration (MIC)” value in assay [1] is recorded as over 25; in assay [2] it was over 25; in assay [3], 1.56; in assay [4], 1.56; in assay [5] it was 1.56; in assay [6] it was 6.25.
